Experimental data as given in patent US5084441A, “Acetylated low density lipoproteins: a delivery system to phagocytic cells for stimulating immunologic response and host resistance” (priority 1988, dated 1992).

Key:
[1] = test system: B16F10 melanoma target cells; test: Macrophage-mediated cytostasis ([3H]thymidine incorporation) after treating thioglycolate-elicited macrophages; conditions: for % Cytostasis: effector:target 10:1
Experimental: ^(2) Thioglycolate-elicited macrophages were treated with different
concentrations of the complex for 24 hours, unbound complex was washed
away and B16F10 melanoma cells were added. After 24 hours, the cultures
were pulsed with [3H]thymidine and harvested after 18 hours
(effector:target ratio, 10:1).
Macrophage-mediated Cytostasis: Cytostatic activity was determined using a (^3 H) Thymidine (New England Nuclear Corp) incorporation technique (64). […] After 24 hours, the cells were washed twice with warm DMEM and cultured in DMEM (10% FCS), with 1×10^5 B16F10 melanoma target cells for 24 hours. The cells were then pulsed for 24 hours with 1 uCi of (^3 H) thymidine. Cells were harvested using a MASH cell harvester and assayed with a liquid scintillation counter. The results were expressed as a percent inhibition of (^3 H) thymidine incorporation into the B16F10 target cells (such as % cytostasis). [formula]

[2] = test system: P815 mastocytoma target cells; test: Macrophage-mediated cytotoxicity ([3H]thymidine release) after treating thioglycolate-elicited macrophages
Experimental: Macrophage-mediated cytotoxicity: Cytotoxicity was determined using a [3H] thymidine release assay. Thioglycolate-elicited macrophages were plated in 96-well flat-bottom tissue culture plates (Costar, Cambridge, Mass.) at 4×10^5 and 1×10^4 macrophage per well. […] After 24 hours, the plates were washed three times and [3H] thymidine labelled P815 tumor target cells (1×10^4) were added to each well. The total assay volume was 250 μl in DMEM with 10% FCS and the plates were incubated an additional 24 hours. After incubation, the microplates were centrifuged for 2 minutes at 250×g and a 125 μl aliquot of supernatant was removed and counted by liquid […]. Total incorporation of radioactivity was determined by adding 1×10^4 cells to 2 ml of Beckman Redissolve scintillation cocktail.
The percent specific release was calculated. [formula]
All samples were plated in triplicate and the data presented as the mean ±S.D. of triplicates.

[3] = test system: thioglycolate-elicited macrophages; test: Fluorescent binding and uptake of acetyl-LDL:MTP-PE-DiI by macrophages; format: cell-based, mouse; conditions: 30-fold excess of competitor; 30 μg acetyl-LDL:MTP-PE-DiI; 37°
Experimental: The binding and uptake of acetyl-LDL:MTP-PE-DiI was carried out at 37 degrees centigrade and the fluorescence intensity of cell-associated DiI recorded. The μg acetyl-LDL:MTP-PE-DiI bound was determined by knowing the quantity of DiI associated with the complex (1.34±0.76 nmol DiI/mg acetyl-LDL protein). The data points represent an average of three separate experiments.
Insert: Uptake of 30 μg of acetyl-LDL:MTP-PE-DiI and in the presence of a 30-fold excess of acetyl-LDL (a) a 30-fold excess of LDL (b) or a 30-fold excess of liposomes (c).

[4] = test system: thioglycolate-elicited macrophages, thymocytes and X63-Ag8.653 myeloma cells; test: Cell specificity of [125I]acetyl-LDL binding; set-up: species or system mouse
Experimental: Thiglycolate-elicited macrophages, thymocytes and X63-Ag8.653 myeloma cells were incubated with [^125 I] acetyl-LDL at 4 degrees centigrade in six cell tissue culture plates at […]. After 2 hours, the cells were washed five times, then lysed in 0.05% Triton X-100 and the amount of [^125 I] acetyl-LDL bound was determined.

macrophages = conditions: reference 41; cited from earlier work

Substance	% Cytostasis ([1]; acetyl-LDL 6.25 μg protein/ml (MTP-PE 0.62 μg/ml in complex, 0.0 alone), 24 hours)	% Cytostasis (Complex + Excess Liposomes) ([1]; acetyl-LDL 6.25 μg protein/ml (MTP-PE 0.62 or 0.0 μg/ml) in presence of excess liposomes 1.2 mg lipid/ml)	% Cytostasis ([1]; acetyl-LDL 12.5 μg protein/ml (MTP-PE 1.3 μg/ml in complex, 0.0 alone), 24 hours)	% Cytostasis (Complex + Excess Liposomes) ([1]; acetyl-LDL 12.5 μg protein/ml (MTP-PE 1.3 or 0.0 μg/ml) in presence of excess liposomes 1.2 mg lipid/ml)	% Cytostasis ([1]; acetyl-LDL 25 μg protein/ml (MTP-PE 2.5 μg/ml in complex, 0.0 alone), 24 hours)	% Cytostasis (Complex + Excess Liposomes) ([1]; acetyl-LDL 25 μg protein/ml (MTP-PE 2.5 or 0.0 μg/ml) in presence of excess liposomes 1.2 mg lipid/ml)	% Cytostasis ([1]; acetyl-LDL 50 μg protein/ml (MTP-PE 5.0 μg/ml in complex, 0.0 alone), 24 hours)	% Cytostasis (Complex + Excess Liposomes) ([1]; acetyl-LDL 50 μg protein/ml (MTP-PE 5.0 or 0.0 μg/ml) in presence of excess liposomes 1.2 mg lipid/ml)	% Cytostasis ([1]; acetyl-LDL 100 μg protein/ml (MTP-PE 9.9 μg/ml in complex, 0.0 for acetyl-LDL alone), macrophages treated 24 hours)	% Cytostasis (Complex + Excess Liposomes) ([1]; acetyl-LDL 100 μg protein/ml (MTP-PE 9.9 or 0.0 μg/ml) in presence of excess liposomes 1.2 mg lipid/ml)	Percent Cytotoxicity ([2]; effector to target cell ratio 1:1, same amounts per well)	Percent Cytotoxicity ([2]; effector to target cell ratio 5:1, same amounts per well)	Percent Cytotoxicity ([2]; effector to target cell ratio 10:1, same amounts per well)	Percent Cytotoxicity ([2]; effector to target cell ratio 20:1, same amounts per well)	Percent Cytotoxicity ([2]; effector to target cell ratio 40:1, per well: complex 18.0 ug protein containing 3.6 ug MTP-PE, free MTP-PE 3.6 ug, acetyl-LDL 18.0 ug protein)	competition with uptake of DiI-labeled acetyl-LDL:MTP-PE complex [3]	binding to myeloma cell line (B-lymphocyte) and thymocytes (T-lymphocytes) [4]	rate of uptake and degradation by macrophages relative to LDL (macrophages)
Acetyl-LDL: human plasma LDL exhaustively acetylated with acetic anhydride at apoprotein B lysine residues; the carrier alone	≤ 5%	≤ 5%	< 5%	≤ 5%	25 ± 12%	≤ 5%	< 5%	≤ 5%	< 5%	≤ 5%	0.5 ± 1%	4.5 ± 4%	4 ± 2%	6 ± 2%	3 ± 3%	effective competitive inhibitor	only low levels of binding	approximately twenty-fold greater
LDL: native unmodified human plasma low density lipoprotein																negligible to moderate competition		
